Results published in patent publication US20100216751A1 (priority 2007, published 2010).
Several values for one entry are separate records, joined by “and”; a condition that tells them apart may be missing. Identical values can stand only once.

Assay: Pharmacokinetic evaluation of liquid bevirimat dosage forms, oral gavage, male Cynomolgus monkeys
Protocol: Six male Cynomolgus monkeys having an initial body weight of about 3.5 to about 4.5 kg are allowed 7 days to acclimate to their individual housing units. Monkeys are supplied with water and a commercial diet ad libitum prior to the study initiation. Food is withheld from the monkeys for a minimum of twelve hours before the study and during the study until four hours postdose when food is returned. Water is supplied ad libitum.
Test formulations are administered to the monkeys at time 0 on appropriate days. Test formulations will be dosed orally via oral gavage or intravenously.
Samples are drawn at the frequencies indicated below. Each blood sample (0.5 mL) is collected from the monkey's saphenous vein via a butterfly catheter and placed into a chilled polypropylene tube containing sodium heparin as the anticoagulant. Blood samples are centrifuged at a temperature of 4° C. at a speed of 3,000 rpm for 15 minutes. All samples are maintained chilled throughout processing. Plasma is collected after centrifugation, pipetted into a 2-mL polypropylene microtube, and frozen on dry-ice pending analytical evaluation.

[1] = 12.5 mg FAE/mL in 10% HPβCD, 50 mg FAE/monkey oral gavage, monkeys 186,116,120,AVG
[2] = 12.5 mg FAE/mL in 15% EtOH:0.5% TPGS:15% PG:5% Glycerin, 0.2% Povidone K90, 50 mg FAE/monkey oral gavage, monkeys 117,118,119,AVG
[3] = 12.5 mg FAE/mL in 15% Ethanol, 30% PG, 10% Glycerin, 50 mg FAE oral gavage, monkeys 117,118,119,AVG
[4] = 12.5 mg FAE/mL in 40% PG, 20% Glycerin, 0.25% Tween80, 0.2% Povidone K15, 50 mg FAE oral gavage, monkeys 186,116,120,AVG
[5] = 12.5 mg FAE/mL in 40% PG, 20% Glycerin, 1% TPGS, 0.25% Tween80, 0.2% Povidone K15, 50 mg FAE/monkey oral gavage, monkeys 117,118,119,AVG
[6] = 12.5 mg FAE/mL in 40% PG, 20% glycerin, 5% Vitamin E TPGS, 0.25% Tween80, 0.20% Plasdone C15, 10 mM sodium phosphate pH 8.0, 200 mg/monkey (50.0 mg/kg) oral gavage, monkeys 181,182,AVG
[7] = 50 mg FAE/mL in 40% EtOH:40% PG:20% Glycerol, 50 mg FAE/monkey oral gavage, monkeys 117,118,119,AVG
[8] = male, cynomolgus monkey, in vivo, 50 mg/kg, pH 8
[9] = male, cynomolgus monkey, in vivo, po, 50 mg FAE/monkey

Compound: C=C(C)[C@@H]1CC[C@]2(C(=O)O)CC[C@]3(C)[C@H](CC[C@@H]4[C@@]5(C)CC[C@H](OC(=O)CC(C)(C)C(=O)O)C(C)(C)[C@@H]5CC[C@]43C)[C@@H]12 [Bevirimat, 3-O-(3′,3′-dimethylsuccinyl)betulinic acid]
- AUCall [1]: 392.275 µg·h/mL
- Cmax [1]: 56.4 µg/mL
- Dnzed AUCall [1]: 38150 ng·h/mL/mg/kg
- t1/2 [1]: 7.0 h and 11.4 h and 9.4 h
- t1/2 (12.5 mg FAE/mL in 15% EtOH:0.5% TPGS:15% PG:5% Glycerin, 50 mg FAE/monkey oral gavage, monkeys 117,118,119,AVG): 11.3 h and 11.5 h and 11.6 h
- AUCall [2]: 270.194 µg·h/mL and 344.629 µg·h/mL and 367.461 µg·h/mL
- Cmax [2]: 65.6 µg/mL and 52.8 µg/mL and 56.567 µg/mL
- t1/2 [2]: 14.5 h and 8.7 h and 11.8 h
- Cmax [3]: 57.2 µg/mL and 97.4 µg/mL and 72.9 µg/mL
- t1/2 [3]: 10.4 h and 9.0 h and 9.4 h
- Dnzed AUCall [4]: 17281 ng·h/mL/mg/kg and 15596 ng·h/mL/mg/kg
- t1/2 [4]: 8.1 h and 10.2 h and 8.7 h
- t1/2 (12.5 mg FAE/mL in 40% PG, 20% Glycerin, 1% TPGS, 0.25% Tween80, 50 mg FAE/monkey oral gavage, monkeys 186,116,120,AVG): 9.9 h and 11.1 h and 10.3 h
- Cmax [5]: 84.8 µg/mL and 77.2 µg/mL and 85.1 µg/mL
- t1/2 [5]: 7.9 h and 6.4 h and 8.2 h
- AUCall [6]: 1681.058 µg·h/mL
- Cmax [6]: 174 µg/mL and 199.5 µg/mL
- Dnzed AUCall [6]: 33621 ng·h/mL/mg/kg
- t1/2 [6]: 10.2 h and 9.2 h
- t1/2 (25 mg/mL in 30% EtOH:1% TPGS:30% PG:10% Glycerin, 50 mg FAE/monkey oral gavage, monkeys 117,118,119,AVG): 17.8 h and 9.0 h and 12.5 h
- Cmax [7]: 24.9 µg/mL and 33.1 µg/mL and 27.933 µg/mL
- t1/2 [7]: 7.8 h and 8.5 h
- t1/2 (50 mg FAE/mL in 40% PG:20% Glycerin:1% TPGS:5% Tween 80 in SWFI, 50 mg FAE/monkey oral gavage, monkeys 117,118,119,AVG): 11.8 h and 14.6 h and 12.8 h
- t1/2 (10% HPβCD, 50 mg FAE/monkey oral gavage, monkeys 117,118,119,AVG): 10.2 h and 11.0 h and 10.4 h
- bioavailability (male, cynomolgus monkey, in vivo): ~55%
- concentration at 1 hr [8]: 108 µg/mL
- concentration at 2 hr [8]: 225 µg/mL
- concentration at 4 hr [8]: 163 µg/mL
- concentration at 6 hr [8]: 107 µg/mL
- concentration at 8 hr [8]: 70.3 µg/mL
- concentration at 12 hr [8]: 47.5 µg/mL
- concentration at 0.25 hr (male, cynomolgus monkey, in vivo, po, 50 mg FAE): 3.06 µg/mL
- concentration at 0.25 hr (male, cynomolgus monkey, in vivo, po, 50 mg FAE, Plasma concentration, 0.25 hr, 12.5 mg FAE/mL in 15% Ethanol, 30% PG, 10% Glycerin, 50 mg FAE oral gavage, monkeys 117,118,119,AVG, BLOQ=below 50 ng/mL): 0.066 µg/mL
- concentration at 4 hr (male, cynomolgus monkey, in vivo, po, 50 mg FAE, Plasma concentration, 4.0 hr, 12.5 mg FAE/mL in 15% Ethanol, 30% PG, 10% Glycerin, 50 mg FAE oral gavage, monkeys 117,118,119,AVG): 46 µg/mL
- concentration at 6 hr (male, cynomolgus monkey, in vivo, po, 50 mg FAE, Plasma concentration, 6.0 hr, 12.5 mg FAE/mL in 15% Ethanol, 30% PG, 10% Glycerin, 50 mg FAE oral gavage, monkeys 117,118,119,AVG): 44.7 µg/mL
- concentration at 24 hr (male, cynomolgus monkey, in vivo, po, 50 mg FAE, Plasma concentration, 24 hr, 12.5 mg FAE/mL in 40% PG, 20% Glycerin, 0.25% Tween80, 0.2% Povidone K15, 50 mg FAE oral gavage, monkeys 186,116,120,AVG): 0.434 µg/mL
- concentration at 48 hr (male, cynomolgus monkey, in vivo, po, 50 mg FAE, Plasma concentration, 48 hr, 12.5 mg FAE/mL in 40% PG, 20% Glycerin, 0.25% Tween80, 0.2% Povidone K15, 50 mg FAE oral gavage, monkeys 186,116,120,AVG): 0.0603 µg/mL
- concentration at 72 hr (male, cynomolgus monkey, in vivo, po, 50 mg FAE, Plasma concentration, 72 hr, 12.5 mg FAE/mL in 15% Ethanol, 30% PG, 10% Glycerin, 50 mg FAE oral gavage, monkeys 117,118,119,AVG, BLOQ=below 50 ng/mL): 0.179 µg/mL
- concentration at 1 hr [9]: 85.2 µg/mL
- concentration at 2 hr [9]: 93.3 µg/mL
- concentration at 4 hr [9]: 62.7 µg/mL
- concentration at 0.25 hr (male, cynomolgus monkey, in vivo, po, 50 mg FAE/monkey, Plasma concentration, 0.25 hr, 25 mg/mL in 30% EtOH:1% TPGS:30% PG:10% Glycerin, 50 mg FAE/monkey oral gavage, monkeys 117,118,119,AVG, BLOQ=below 50 ng/mL): 0.147 µg/mL
- concentration at 0.25 hr (male, cynomolgus monkey, in vivo, po, 50 mg FAE/monkey, Plasma concentration, 0.25 hr, 50 mg FAE/mL in 40% EtOH:40% PG:20% Glycerol, 50 mg FAE/monkey oral gavage, monkeys 117,118,119,AVG, BLOQ=below 50 ng/mL): 0.0755 µg/mL
- concentration at 0.5 hr (male, cynomolgus monkey, in vivo, po, 50 mg FAE/monkey, Plasma concentration, 0.50 hr, 12.5 mg FAE/mL in 40% PG, 20% Glycerin, 1% TPGS, 0.25% Tween80, 0.2% NaCMC, 50 mg FAE/monkey oral gavage, monkeys 117,118,119,AVG): 12.5 µg/mL
- concentration at 1 hr (male, cynomolgus monkey, in vivo, po, 50 mg FAE/monkey, Plasma concentration, 1.0 hr, 12.5 mg FAE/mL in 10% HPβCD, 50 mg FAE/monkey oral gavage, monkeys 186,116,120,AVG): 56.4 µg/mL
- concentration at 1 hr (male, cynomolgus monkey, in vivo, po, 50 mg FAE/monkey, Plasma concentration, 1.0 hr, 12.5 mg FAE/mL in 40% PG, 20% Glycerin, 1% TPGS, 0.25% Tween80, 50 mg FAE/monkey oral gavage, monkeys 186,116,120,AVG): 65.5 µg/mL
- concentration at 1 hr (male, cynomolgus monkey, in vivo, po, 50 mg FAE/monkey, Plasma concentration, 1.0 hr, 50 mg FAE/mL in 40% EtOH:40% PG:20% Glycerol, 50 mg FAE/monkey oral gavage, monkeys 117,118,119,AVG): 19.2 µg/mL
